# Measurements as given in patent publication US20130281397A1, “TREATMENT OF DISEASES BY EPIGENETIC REGULATION” (RVX Therapeutics Inc., priority 2012, published 2013).
# Molecular target: T1, Brd4 bromodomain 1 (Homo sapiens, UniProt O60885)
# T1 construct: made in house; host or cells: E. coli BL21(DE3)
# Assay: Inhibition of binding of tetra-acetylated histone H4 and Brd4 bromodomain 1 by TR-FRET
# Settings: His-tagged bromodomain 200 nM, biotinylated tetra-acetylated histone H4 peptide 25-50 nM, 2 hours at room temperature
# Description: Proteins were cloned and overexpressed with a N-terminal 6×His tag, then purified by nickel affinity followed by size exclusion chromatography. Briefly, E. coli BL21(DE3) cells were transformed with a recombinant expression vector encoding N-terminally […] tagged bromodomains from Brd2, Brd3, or Brd4. Cell cultures were incubated at 37° C. with shaking to the appropriate density and induced overnight with IPTG. The supernatant of lysed cells was loaded onto Ni-IDA column for purification. Eluted protein was pooled, concentrated and further purified by size exclusion chromatography. Fractions representing monomeric protein were pooled, concentrated, aliquoted, and frozen at −80° C. for use in subsequent experiments.
# For inhibition assays, serially diluted test compound was added to these reactions in a 0.2% final concentration of DMSO. Final buffer concentrations were 30 mM HEPES pH 7.4, 30 mM NaCl, 0.3 mM CHAPS, 20 mM phosphate pH 7.0, 320 mM KF, 0.08% BSA). […] The binding inhibitory activity was shown by a decrease in 665 nm fluorescence relative to 620 nm. IC50 values were determined from a dose response curve.
row,Compound,FRET activity (<50 uM)
1,"Cc1cc(-c2nc3ccc(Br)cc3c(=O)[nH]2)cc(C)c1OCCO [Example 89, 6-bromo-2-(4-(2-hydroxyethoxy)-3,5-dimethylphenyl)quinazolin-4(3H)-one]",Inactive
2,"COc1cc(OC)c2c(=O)[nH]c(-c3cc(C)c(OCc4ccccc4)c(C)c3)nc2c1 [Example 90, 2-(4-(benzyloxy)-3,5-dimethylphenyl)-5,7-dimethoxyquinazolin-4(3H)-one]",Inactive
3,"COc1cc(OC)c2c(=O)[nH]c(-c3ccc(OCCO)c(C)c3)nc2c1 [Example 91, 2-(4-(2-hydroxyethoxy)-3-methylphenyl)-5,7-dimethoxyquinazolin-4(3H)-one]",Active
4,"COc1cc(OC)c2c(=O)[nH]c(-c3ccc(O)c(C)c3)nc2c1 [Example 92, 2-(4-hydroxy-3-methylphenyl)-5,7-dimethoxyquinazolin-4(3H)-one]",Active
5,"CNC(=O)c1ccccc1C(=O)NCCOc1c(C)cc(-c2nc3cc(OC)cc(OC)c3c(=O)[nH]2)cc1C [Example 93, N1-(2-(4-(5,7-dimethoxy-4-oxo-3,4-dihydroquinazolin-2-yl)-2,6-dimethylphenoxy)ethyl)-N2-methylphthalamide]",Active
6,"COc1ccc(S(=O)(=O)NCCOc2c(C)cc(-c3nc4cc(OC)cc(OC)c4c(=O)[nH]3)cc2C)cc1 [Example 94, N-(2-(4-(5,7-dimethoxy-4-oxo-3,4-dihydroquinazolin-2-yl)-2,6-dimethylphenoxy)ethyl)-4-methoxybenzenesulfonamide]",Inactive
7,"COc1cc(OC)c2c(=O)[nH]c(-c3cc(C)c(OCCNS(=O)(=O)c4ccc(Cl)cc4)c(C)c3)nc2c1 [Example 95, 4-chloro-N-(2-(4-(5,7-dimethoxy-4-oxo-3,4-dihydroquinazolin-2-yl)-2,6-dimethylphenoxy)ethyl)benzenesulfonamide]",Inactive
8,"CCCNC(=O)OCCOc1c(C)cc(-c2nc3cc(OC)cc(OC)c3c(=O)[nH]2)cc1C [Example 99, 2-(4-(5,7-Dimethoxy-4-oxo-3,4-dihydroquinazolin-2-yl)-2,6-dimethyl-phenoxy)ethyl propylcarbamate]",Active
9,"CNC(=O)OCCOc1c(C)cc(-c2nc3cc(OC)cc(OC)c3c(=O)[nH]2)cc1C [Example 100, 2-(4-(5,7-Dimethoxy-4-oxo-3,4-dihydroquinazolin-2-yl)-2,6-dimethyl-phenoxy)ethyl methylcarbamate]",Active
10,"COc1cc(OC)c2c(=O)[nH]c(-c3cc(C)c(OCCNC(=O)c4ccc(C)cc4)c(C)c3)nc2c1 [Example 101, N-(2-(4-(5,7-Dimethoxy-4-oxo-3,4-dihydroquinazolin-2-yl)-2,6-dimethylphenoxy)ethyl)-4-methylbenzamide]",Active
11,"COc1cc(OC)c2c(=O)[nH]c(-c3cc(C)c(OCCOC(=O)NC4CCCCC4)c(C)c3)nc2c1 [Example 102, 2-(4-(5,7-dimethoxy-4-oxo-3,4-dihydroquinazolin-2-yl)-2,6-dimethylphenoxy)ethyl cyclohexylcarbamate]",Active
12,"COc1cc(OC)c2c(=O)[nH]c(-c3cc(C)c(OCCNS(=O)(=O)c4ccccc4)c(C)c3)nc2c1 [Example 103, N-(2-(4-(5,7-dimethoxy-4-oxo-3,4-dihydroquinazolin-2-yl)-2,6-dimethylphenoxy)ethyl)benzenesulfonamide]",Inactive
13,"COc1cc(OC)c2c(=O)[nH]c(-c3cc(C)c(OCCNS(=O)(=O)c4ccc(C)cc4)c(C)c3)nc2c1 [Example 104, N-(2-(4-(5,7-dimethoxy-4-oxo-3,4-dihydroquinazolin-2-yl)-2,6-dimethylphenoxy)ethyl)-4-methylbenzenesulfonamide]",Inactive
14,"COc1ccc(C(=O)NCCOc2c(C)cc(-c3nc4cc(OC)cc(OC)c4c(=O)[nH]3)cc2C)cc1 [Example 105, N-(2-(4-(5,7-dimethoxy-4-oxo-3,4-dihydroquinazolin-2-yl)-2,6-dimethylphenoxy)ethyl)-4-methoxybenzamide]",Inactive
